According to patent publication EP0193637A1, “Use for the improvement or treatment of various diseases associated with cerebrovascular damages” (Yoshitomi Pharmaceutical Industries, Ltd., priority 1985, dated 1986):
Counter-ions that a name gives are not always drawn. Marks after values point to notes of the source that are not given here.

How the values were obtained:
CO2-induced amnesia = assay: CO2-induced amnesia, one trial step-through passive avoidance response; format: in vivo, mice; details: 5 mg/kg i.p. immediately after CO2, test 24 hours after training, up to 600 seconds, mean ± standard error, p<0.01 vs. CO2-vehicle control
From the text: (§1) Male ddY-mice, weighing 19-25 g were used. The test apparatus consisted of a two-compartment avoidance box with a large 10x23x20 cm compartment illuminated by a 40W bulb, and a. small 14x14x20 cm shock compartment, painted black, with a floor made of metal rods 6 mm apart through which a foot shock (FS, 0.25 mA, 2 seconds) could be delivered. The two compartments were separated by a guillotine door.
(§2) The training procedure consisted of placing the mouse in the center of the large compartment. Within 20 to 50 seconds the animal entered the small compartment and was immediately given FS, and removed from the compartment. The animals were exposed to C02 for 8 seconds or given an electroconvulsive shock (ECS, 30 mA, 0.5 seconds) immediately after FS, or were injected with an amnestic agent scopolamine (SCO, 3 mg/kg i.p.) 20 minutes before FS.
(§3) The testing procedure consisted of placing the animal in the large compartment as above and noting the latency to enter the dark compartment up to 600 seconds. The training-to-test interval was 24 hours. Compound A or vehicle (0.5 % methylcellulose) was injected intraperitoneally immediately after exposure to C02 or ECS. For the scopolamine induced amnesia model, they were injected intraperitoneally immediately after FS. Thirty mice were used per test group.

ECS = assay: Electroconvulsive shock (ECS) induced amnesia, one trial step-through passive avoidance response; format: in vivo, mice; details: ECS-induced amnesia (30 mA, 0.5 seconds); 5 mg/kg i.p. immediately after ECS; test 24 hours after training; mean ± standard error; p<0.05 vs. ECS-vehicle control
From the text: as §1, §2, §3

[1] = test system: scopolamine induced amnesia; assay: Scopolamine induced amnesia, one trial step-through passive avoidance response; format: in vivo, mice; details: scopolamine (3 mg/kg i.p.) induced amnesia; 5 mg/kg i.p. immediately after foot shock; test 24 hours after training; mean ± standard error; p<0.05 vs. SCO-vehicle control
From the text: as §1, §2, §3

normabaric hypoxia = assay: Normobaric hypoxia, time to respiratory failure; format: in vivo, mice; details: 30 mg/kg i.p., nitrogen and oxygen (96:4), mean ± standard error, p<0.01 vs. control
Protocol: The experiment was performed according to the method by Yasuda et al described in Arch. Int. Pharmacolodyn., vol. 233, p. 136-144 (1978).
Three male ddY-mice were introduced into a 300 ml glass container in which circulated a current of a gas mixture of nitrogen and oxygen (96:4) at the rate of about 51/minutes. The time to respiratory failure was recorded.

KCN-induced coma = assay: KCN-induced coma, recovery of righting reflex; format: in vivo, mice; details: values are log t, 10 mg/kg i.p. 30 minutes prior to KCN 1.8 mg/kg i.v., p<0.01 vs. control
Protocol: Male dd-mice were intraperitoneally injected with Compound A 30 minutes prior to the intravenous injection of 1.8 mg/kg of KCN-saline solution. The time to recovery of righting reflex, coma time, was determined.

KCN-induced mortality = assay: KCN-induced mortality; format: in vivo, mice; details: 30 mg/kg i.p. 30 minutes before KCN 2.5 mg/kg i.v.
[2] = test system: cerebral energy state in KCN-induced anoxia mice; assay: Cerebral energy state in KCN-induced anoxia mice; format: in vivo; details: brain, p<0.01 vs. control; for ADP / AMP / ATP / Glucose / Lactate / P-creatine: Compound A i.p.; for ECP (Energy charge potential): ECP = ATP + 0.5xADP / ATP + ADP + AMP
Protocol: Male ddY-mice weighing 22-26 g were used. Compound A was dissolved in 0.5 % methylcellulose solution and injected intraperitoneally. After administration, 2.5 mg/kg of KCN in saline was injected intravenously. The animals were frozen in liquid nitrogen at 30 or 120 seconds laterm After removing and weighing, the frozen cerebrums were powdered.
According to the procedure by Lowry, O. H. et al described in "A flexible system of enzymatic analysis" (Academic press 1978) or by Yasuda et al described in Arch. Int. Pharmacodyn., vol. 242, p. 77-85 (1979), contents of Phosphocreatine (P-creatine), ATP, ADP, AMP, glucose and lactate in brain were determined. Concentrations (µ moles/g of brain) were calculated. Student's t-test was used in the statical analysis of the results.

[3] = test system: 2-deoxy-D-glucose uptake into rat brain; assay: Chronic administration, 2-deoxy-D-glucose uptake into rat brain; format: in vivo; details: 10 mg/kg i.p. once daily for 14 days; for dpm/mg tissue dpm/µl serum: 3H-2-deoxy-D-glucose 27 hours after last administration, mean ± standard error, p<0.05 vs. control; for dpm/mg tissue dpm/µl serum (Δ%): change vs. control
Protocol: 2-deoxy-D-glucose uptake into rat brain Compound A was administered intraperitoneally to male Wistar-rat once daily for 14 days. ^3H-2-deoxy-D-glucose (40 µCi/kg, i.p.) was injected to rats 27 hours after the last administration of Compound A. Fifteen minuts after the injection of 3H-2-deoxy-D-glucose, the animals were decapitated and blood from trunk was collected simultaneously. The brains were dissected into five regions. Radioactivity in the brain sample and serum was counted using Soluene-350 and toluene scintillator. […] Each value represents the mean ± standard error.

Acute toxicity in rats = details: rat, in vivo, po, one week-observation
Protocol: (§4) Compound A was orally administered to male Wistar-rats weighing about 200 g and male ddY-mice weighing 20-25 g. After one week-observation, the LD50 value (mg/kg) was measured.

Acute toxicity in mice = details: mouse, in vivo, po, one week-observation
Protocol: as §4

[4] = 30 sec. after KCN 2.5mg/kg i.v.
[5] = 120 sec. after KCN 2.5mg/kg i.v.

Question: Which results are given for `c1csc(Cc2ccccc2OCC2CNCCO2)c1` (stereo not drawn) [Compound A, 2-(2-(2-thienylmethyl)phenoxymetyl)morpholine maleate]?
Answer: Latency (CO2-induced amnesia): 324.5 ± 37.1 s; Latency (ECS): 357.5 ± 46.5 s; Latency [1]: 169.6 ± 26.7 s; Survival time (normabaric hypoxia): 3.87 ± 0.32 min; Coma time (sec.) (log t ± S.E.) (KCN-induced coma): 1.95 ± 0.039 sec.; Lethality (KCN-induced mortality): 0; Survival animals/ animals used (KCN-induced mortality; p<0.01 vs. control): 10/10**; ADP [2, 4]: 0.599 ± 0.020 µmol/g of wet tissue; AMP [2, 4]: 0.107 ± 0.009 µmol/g of wet tissue; ATP [2, 4]: 2.62 ± 0.07 µmol/g of wet tissue; Glucose [2, 4]: 1.25 ± 0.11 µmol/g of wet tissue; Lactate [2, 4]: 4.92 ± 0.17 µmol/g of wet tissue; P-creatine [2, 4]: 2.52 ± 0.13 µmol/g of wet tissue; ECP (Energy charge potential) [2, 4]: 0.880 ± 0.004; ADP [2, 5]: 0.509 ± 0.023 µmol/g of wet tissue; AMP [2, 5]: 0.044 ± 0.005 µmol/g of wet tissue; ATP [2, 5]: 2.60 ± 0.02 µmol/g of wet tissue; Glucose [2, 5]: 0.64 ± 0.04 µmol/g of wet tissue; Lactate [2, 5]: 7.42 ± 0.42 µmol/g of wet tissue; P-creatine [2, 5]: 2.40 ± 0.09 µmol/g of wet tissue; ECP (Energy charge potential) [2, 5]: 0.905 ± 0.004; dpm/mg tissue dpm/µl serum ([3]; Hippocampus): 0.90 ± 0.07; dpm/mg tissue dpm/µl serum (Δ%) ([3]; Hippocampus): +20%; dpm/mg tissue dpm/µl serum ([3]; Parietal cortex): 1.27 ± 0.11; dpm/mg tissue dpm/µl serum (Δ%) ([3]; Parietal cortex): +21%; LD50 at 168 h (Acute toxicity in rats): 1710 mg/kg; LD50 at 168 h (Acute toxicity in mice): 716 mg/kg
